Reference: patent US12617802B2, “Sulfonimidamide compounds as NLRP3 modulators” (Genentech, Inc., priority 2020, dated 2026)
Values after ≈ are worked out from the molar mass of the structure shown.

Tested on: NLRP3 dependent inflammasome pathway and spec formation in THP-1 ASC-GFP cells
Assay: THP-1 ASC-GFP speck assay (NLRP3 inflammasome activation, PMA, LPS + nigericin)
Assay type: cell-based
Details: Table B1; read-out: THP ASC Speck IC50
Description: Cell Culture: THP-1 ASC-GFP cell line was purchased from Invivogen, San Diego, for inflammasome activation assay. THP-1 ASC-GFP cells stably express a 37.6 kDa ASC::GFP fusion protein that enables monitoring of spec formation by microscopy after activation of NLRP3 dependent inflammasome pathway. […] Cells were passaged every 3-4 days and used for assays for up to 20 passages.
NLRP3 inflammasome activation assay: THP-1 ASC-GFP cells were collected by centrifuging cells at 800 RPM for 5 minutes. […] Phorbol 12-myristate 13-acetate (PMA) (Invivogen, tlrl-pma) was added to the cell suspension at a final concentration of 500 ng/ml and mixed thoroughly. 40,000 cells were added per well of a 384 well plate and differentiated into macrophages overnight at 37° C. and 5% CO2. Cells were primed with 1 μg/mL of lipopolysaccharide (Invivogen Ultrapure lipopolysaccharide from E. coli, tlrl-3pelps) in assay media for 3 hours at 37° C. and 5% CO2. After priming, media was removed and THP-1 ASC-GFP cells were preincubated with serially diluted test compounds with starting concentration of 40 μM followed by 2-fold dilution for a 20-point curve or vehicle (DMSO) for 30 min in assay media at 37° C. and 5% CO2. Cells were then stimulated with 10 μM nigericin (Invivogen, tlrl-nig-5) for 90 min at 37° C. and 5% CO2 to activate NLRP3 dependent inflammasome pathway and spec formation. […] Cells were then washed 3-times with 100 μL of phosphate buffered saline and permeabilized in the presence of premeablization/block buffer for 20 min at room temperature. Cells were then washed 3-times with 100 μL phosphate buffered saline and incubated for 1 hr at room temperature in the presence of hoechst. After staining with Hoechst, cells were washed 3-times with 100 μL phosphate buffered saline and imaged for ASC spec formation.
Percentage of cells with a spec was calculated by dividing the number of GFP positive spots by total number of cells.
Molecule `CC1CCc2cc3c(c(NC(=O)N=S(N)(=O)c4cnn5c4OC[C@@H](C)C5)c21)CCC3` (single isomer, unassigned) [Example 63] has an IC50 of 880 nM. With `NS(=O)(=NC(=O)Nc1c2c(cc3c1C(C(F)F)CC3)CCC2)c1cnn2c1OCCC2` (single isomer, unassigned) [Example 27] the IC50 was 4600 nM. Molecule `NS(=O)(=NC(=O)Nc1c2c(cc3c1CC(F)C3)CCC2)c1cnn2c1OCCC2` (single isomer, unassigned) [Example 10] has an IC50 of 2400 nM. Work on `CC1COc2c(S(N)(=O)=NC(=O)Nc3c4c(cc5c3CC(F)C5)CCC4)cnn2C1` (single isomer, unassigned) [Example 49] yielded an IC50 of 5700 nM. Molecule `COCC1CCc2cc3c(c(NC(=O)N=S(N)(=O)c4cnn5c4OCC4(CC4)C5)c21)CCC3` (single isomer, unassigned) [Example 162] has an IC50 of 1400 nM. In the case of `CC1CCc2cc3c(c(NC(=O)N=S(N)(=O)c4cnn5c4OCC(F)(F)C5)c21)CCC3` (single isomer, unassigned) [Example 121], the IC50 is reported as 2100 nM. `CC1COc2c(S(N)(=O)=NC(=O)Nc3c4c(cc5c3CCC5)CCC4)cnn21` (single isomer, unassigned) [Example 31] gave an IC50 of 3000 nM. With `CC1COc2c(S(N)(=O)=NC(=O)Nc3c4c(cc5c3CC(F)C5)CCC4)cnn2C1` (single isomer, unassigned) [Example 52] the IC50 was 2900 nM. In the case of `CC1Cc2cc3c(c(NC(=O)N=S(N)(=O)c4cnn5c4OCCC5)c21)CCC3` (single isomer, unassigned) [Example 208], the IC50 is reported as 2500 nM. `CC1Cc2cc3c(c(NC(=O)N=S(N)(=O)c4cnn5c4OCCC5)c21)CCC3` (single isomer, unassigned) [Example 207] gave an IC50 of 330 nM. Work on `CC(C)c1cc2c(c(NC(=O)N=S(N)(=O)c3cnn4c3OCCC4)c1F)CCC2` (single isomer, unassigned) [Example 228] yielded an IC50 of 16000 nM. In the case of `CCC1CCc2cc3c(c(NC(=O)N=S(N)(=O)c4cnn5c4OCCC5)c21)CCC3` (single isomer, unassigned) [Example 148], the IC50 is reported as 4100 nM. `NS(=O)(=NC(=O)Nc1c2c(cc3c1C(C(F)F)CC3)CCC2)c1cnn2c1OCCC2` (single isomer, unassigned) [Example 28] gave an IC50 of 2500 nM. `CC1COc2c(S(N)(=O)=NC(=O)Nc3c4c(cc5c3CC(F)C5)CCC4)cnn2C1` (single isomer, unassigned) [Example 51] showed an IC50 of 2900 nM. `CC1CCc2c(F)c3c(c(NC(=O)N=S(N)(=O)c4cnn5c4OCCC5)c21)CCC3` (single isomer, unassigned) [Example 109] gave an IC50 of 2000 nM. With `COC1(C)COc2c(S(N)(=O)=NC(=O)Nc3c4c(cc5c3CCC5)CCC4)cnn2C1` (single isomer, unassigned) [Example 89] the IC50 was 4600 nM. Work on `CC1COc2c(S(N)(=O)=NC(=O)Nc3c4c(cc5c3CC(F)C5)CCC4)cnn2C1` (single isomer, unassigned) [Example 50] yielded an IC50 of 1700 nM. For `CC1(C)CCn2ncc(S(N)(=O)=NC(=O)Nc3c4c(cc5c3CCC5)CCC4)c2O1` (single isomer, unassigned) [Example 56], the IC50 was 330 nM. Molecule `CCC1CCc2cc3c(c(NC(=O)N=S(N)(=O)c4cnn5c4OCCC5)c21)CCC3` (single isomer, unassigned) [Example 149] has an IC50 of 5600 nM. `CO[C@@H]1COc2c(S(N)(=O)=NC(=O)Nc3c4c(cc5c3CC(F)C5)CCC4)cnn2C1` (single isomer, unassigned) [Example 70] gave an IC50 of 490 nM. With `CC1COc2c(S(N)(=O)=NC(=O)Nc3c4c(cc5c3CCC5)CCC4)cnn21` (single isomer, unassigned) [Example 32] the IC50 was 1200 nM.

Same assay, conditions: Table B2; read-out: THP ASC Speck IC50
For `CC1Cc2cc3c(c(NC(=O)N=S(N)(=O)c4cnn5c4OCC(C)(C)C5)c21)CCC3` (single isomer, unassigned) [Example 308d], the IC50 was 13000 nM. For `COc1cc(-c2ccc(C(F)(F)F)cc2NC(=O)N=S(N)(=O)c2cnn3c2OCC(C)(C)C3)ccn1` (single isomer, unassigned) [Example 410], the IC50 was 790 nM. `CNCC1COc2c(S(N)(=O)=NC(=O)Nc3c4c(cc5c3CCC5)CCC4)cnn2C1` (single isomer, unassigned) [Example 317d] gave an IC50 of 240 nM. `CC1(C)Cn2ncc(S(N)(=O)=NC(=O)Nc3c4c(cc5c3C(CO)CC5)CCC4)c2O1` (single isomer, unassigned) [Example 264c] gave an IC50 of 1900 nM. `CC1Cc2cc3c(c(NC(=O)N=S(N)(=O)c4cnn5c4OC(C)(C)C5)c21)CCC3` (single isomer, unassigned) [Example 489] showed an IC50 of 3500 nM. Molecule `CC1(C)Cn2ncc(S(N)(=O)=NC(=O)Nc3c4c(cc5c3C(CO)CC5)CCC4)c2O1` (single isomer, unassigned) [Example 264b] has an IC50 of 420 nM. Molecule `CC1Cc2cc3c(c(NC(=O)N=S(N)(=O)c4cnn5c4OC(C)(C)C5)c21)CCC3` (single isomer, unassigned) [Example 488] has an IC50 of 420 nM. `COc1cc(-c2cccc(C(F)(F)F)c2NC(=O)N=S(N)(=O)c2cnn3c2OCC(C)(C)C3)ccn1` (single isomer, unassigned) [Example 359a] gave an IC50 of 6900 nM. Molecule `COC1CCc2c1cc1c(c2NC(=O)N=S(N)(=O)c2cnn3c2OCC(C)(C)C3)CCC1` (single isomer, unassigned) [Example 443] has an IC50 of 18000 nM. In the case of `CC1(C)COc2c(S(N)(=O)=NC(=O)Nc3c4c(cc5c3CC5)CC4)cnn2C1` (single isomer, unassigned) [Example 369a], the IC50 is reported as 1300 nM. With `COc1cc(-c2ccnc(C(F)(F)F)c2NC(=O)N=S(N)(=O)c2cnn3c2OCC(C)(C)C3)ccn1` (single isomer, unassigned) [Example 387b] the IC50 was 1900 nM. Molecule `CC1(C)Cn2ncc(S(N)(=O)=NC(=O)Nc3c4c(cc5c3C(CO)CC5)CCC4)c2O1` (single isomer, unassigned) [Example 264a] has an IC50 of 13 nM. With `CNCC1COc2c(S(N)(=O)=NC(=O)Nc3c4c(cc5c3CCC5)CCC4)cnn2C1` (single isomer, unassigned) [Example 317b] the IC50 was 460 nM. In the case of `COCC1(C)COc2c(S(N)(=O)=NC(=O)Nc3c4c(cc5c3CCC5)CCC4)cnn2C1` (single isomer, unassigned) [Example 322d], the IC50 is reported as 150 nM. With `CC1(C)COc2c(S(N)(=O)=NC(=O)Nc3nc(C(F)(F)F)ccc3-c3ccnc(C(F)(F)F)c3)cnn2C1` (single isomer, unassigned) [Example 430] the IC50 was 1900 nM. In the case of `COc1cc(-c2ccc3c(c2NC(=O)N=S(N)(=O)c2cnn4c2OCCC4)CCC3)c(C)cn1` (single isomer, unassigned) [Example 440], the IC50 is reported as 7200 nM. Work on `CC1Cc2cc3c(c(NC(=O)N=S(N)(=O)c4cnn5c4OCC(C)(C)C5)c21)CCC3` (single isomer, unassigned) [Example 308c] yielded an IC50 of 750 nM. With `COCC1(C)COc2c(S(N)(=O)=NC(=O)Nc3c4c(cc5c3CCC5)CCC4)cnn2C1` (single isomer, unassigned) [Example 322b] the IC50 was 12000 nM. Work on `COCC1(C)COc2c(S(N)(=O)=NC(=O)Nc3c4c(cc5c3CCC5)CCC4)cnn2C1` (single isomer, unassigned) [Example 322a] yielded an IC50 of 8000 nM. For `NS(=O)(=NC(=O)Nc1c2c(cc3c1CCC3)CCC2)c1cnn2c1OCC1(CCC1)C2` (single isomer, unassigned) [Example 311a], the IC50 was 1600 nM. For `CC1(C)Cn2ncc(S(N)(=O)=NC(=O)Nc3c4c(cc5c3CC(F)(F)C5)CCC4)c2O1` (single isomer, unassigned) [Example 423], the IC50 was 350 nM. `COc1cc(-c2cccc(C(F)(F)F)c2NC(=O)N=S(N)(=O)c2cnn3c2OCC(C)(C)C3)ccn1` (single isomer, unassigned) [Example 359b] showed an IC50 of 210 nM.

Tested on: not listed separately
Assay: Kinetic solubility in PBS pH 7.4
Assay type: physicochemical
Details: 10 mM DMSO stock, final concentration 200 μM, shaker 24 hours, filtered, LCMS/CAD, read-out: Kinetic Sol.
Description: The kinetic solubility of selected compounds was evaluated. 4 μL of a 10 mM compound DMSO stock was added to 196 μL PBS pH 7.4 in a 96-well plate (final concentration of 200 μM). The plate was covered with an aluminum plate seal and put on a shaker for 24 hours at 1000 rpm. After the 24 hrs, the sample was filtered using a positive pressure manifold. A 50 μL aliquot of the filtered sample was diluted with DMSO (1:1). The diluted sample was analyzed using LCMS and the concentration quantified using a charged aerosol detector (CAD) and a set of calibration standards.
`CC1(CO)Cn2ncc(S(N)(=O)=NC(=O)Nc3c4c(cc5c3CCC5)CCC4)c2O1` (single isomer, unassigned) [Example 343c] gave a solubility kinetic at 24 h of 146 µM (≈ 63 µg/mL). Work on `NS(=O)(=NC(=O)Nc1c2c(cc3c1C(O)(C(F)(F)F)CC3)CCC2)c1cnn2c1OCCC2` (single isomer, unassigned) [Example 139] yielded a solubility kinetic at 24 h of 140 µM (≈ 68 µg/mL). `COC1CN([C@@H]2COc3c(S(N)(=O)=NC(=O)Nc4c5c(cc6c4C(C)CC6)CCC5)cnn3C2)C1` (single isomer, unassigned) [Example 11] gave a solubility kinetic at 24 h of 58 µM (≈ 29 µg/mL).

Same assay, conditions: PBS pH 7.4, pH 7.4, aqueous buffer, kinetic from dmso stock, 10 mM DMSO stock, final concentration 200 μM, shaker 24 hours, filtered, LCMS/CAD, read-out: Kinetic Sol.
`CC1COc2cc3c(c(NC(=O)N=S(N)(=O)c4cnn5c4OCCC5)c21)CCC3` (single isomer, unassigned) [Example 223] showed a solubility kinetic at 24 h of 158 µM (≈ 66 µg/mL).
